From patent publication US20240376607A1, “METHOD AND COMPOSITION FOR TREATING DILUTION STEAM GENERATOR SYSTEMS” (BL Technologies, Inc., priority 2021, published 2024)
“Also recorded” adds a separate entry of the source.

Test: Electrochemical corrosion rate measurement (Rp/Ec trend) in DSG water
Settings: DSG Water B, 100 ppm active
Description: Electrochemical measurements were carried out using Gamry 600+ Potentiostat coupled with DC105™ Corrosion Techniques Software. Experiments were performed with a conventional three-electrode electrochemical cell and by employing the Rp/Ec trend technique. All tests were carried out for 24 hours at pH=8.2 to 8.8 and at T=22±0.2° C. (maintained with a recirculating water bath). A Teflon® liner was used to avoid filmer loss to the corrosion cell. The corrosion rates are measured in milli-inch per year (mpy). Pre-cleaned low carbon steel (LCS) coupons having a total surface area of 2.95 in^2 and a density of 7.87 g/cm^3 were used for testing the corrosion inhibitor treatments.

octenyl succinic acid [OSA]
corrosion inhibition (FIG. 1) (LCS coupons): inhibit corrosion; also recorded: not as robust as the Polyamine sample | corrosion rate (FIG. 2) (rate it increases to, 20 hours): 8 mpy
